assay: in vitro; conditions: human, hela cells, % viability

Structure (SMILES) | viability at 28.5 h, 10 µM [%]
CN(C)c1ccc([N+](=O)[O-])cc1/C=N/NC(=O)CCc1ccccc1O [CBK263257] | 86.1
CC(Oc1ccc(Cl)cc1)C(=O)Nc1ncccn1 (stereo not shown) [CBK288206] | 96.5
COc1ccc(C(=O)N2CCC3(CCCN(C(=O)c4ccc5occc5c4)C3)C2)cc1OC (stereo not shown) [CBK131665] | 97.6
Cc1nc2sccn2c(=O)c1NC(=O)c1ccccn1 [CBK287665] | 87.2
COC(=O)c1c(O)noc1C [CBK023348] | 95.6
Cn1c(=O)c2c(nc(NCCO)n2CCc2ccccc2)n(C)c1=O [CBK267497] | 87.8
O=C(Nc1cc(Oc2ccc(F)cc2)cc(Oc2cccnc2)c1)c1nn2c(C(F)(F)F)cc(-c3cccs3)nc2c1Cl [CBK262568] | 93.1
CN(C)c1ccc(C2C(C(=O)c3ccccc3)=C(O)C(=O)N2CCCC(=O)O)cc1 (stereo not shown) [CBK263393] | 96.4
C=CCn1c(-c2sc(NC(=O)c3ccc(CNC(=O)NC(C)C)cc3)nc2C)n[nH]c1=S [CBK297764] | 111
CCOC(=O)CC1C(=O)NCCN1Cc1cccc(C)n1 (stereo not shown) [CBK269965] | 101
COc1cc(/C=C2/NC(=O)N(c3ccccc3)C2=O)ccc1OCc1ccc(C(=O)O)cc1 [CBK265139] | 84.6
c1cnc2[nH]c([C@H]3CCCO3)c(CN3CCCCC3)c2c1 [CBK282284] | 87.7
NC(=O)CSc1nnc(-c2ccncc2)[nH]1 [CBK026179] | 107
CC1CCCCC12NC(=O)N(Cc1csc(-c3cccs3)n1)C2=O (stereo not shown) [CBK305829] | 98.4
CSCCC(=O)NCCc1c[nH]c2ccc(Cl)cc12 [CBK159775] | 95.6
O=S(=O)(NCc1ccccc1)c1ccc(Cl)cc1 [CBK086159] | 86.7
Fc1ccc([C@@H]2CN(Cc3ccccn3)C[C@H]2c2cc[nH]n2)cc1 [CBK285416] | 104
CCOC(=O)c1[nH]c2ccccc2c1NC(=O)COc1ccc(Cl)cc1Cl [CBK160134] | 102
Cc1nn(C)c(N2CCNCC2)c1NC(=O)CN(C)C(=O)c1ccccc1 [CBK050255T] | 109
Cn1nc(NC(=O)COCC(=O)O)c2ccccc21 [CBK057114] | 98.8
O=c1[nH]c2ncc(-c3cncc4ccccc34)nc2n1CCCO [CBK064814] | 96
O=C(CCc1ccccc1)N1CCCC1c1cccc(Cc2ccccc2F)n1 (stereo not shown) [CBK286208] | 118

Structure (SMILES) | viability at 28.5 h, 10 µM [%]
N#CC1CCCc2c1[nH]c1ccc(Br)cc21 (stereo not shown) [CBK026475] | 64.7
COc1ccc(CNC(=O)c2ccccc2NS(=O)(=O)c2cc(Cl)ccc2Cl)cc1 [CBK113964] | 101
O=C(c1cc(-c2ccc(Cl)cc2)[nH]n1)N1CCN(c2ncccn2)CC1 [CBK116551] | 93
Cc1ccc(C(=O)NCCN2CCOCC2)cc1S(=O)(=O)N1CCCCC1 [CBK267329] | 86.2
O=C(Nc1ccc(OC(F)F)cc1)Nc1ncc(Br)c2cccnc12 [CBK107635] | 115
CCCC(=O)c1ccc(S(=O)(=O)N2CCCN(Cc3ccc(F)c(C(F)(F)F)c3)CC2)cc1 [CBK062918] | 93
COc1ccc(Cl)cc1NC(=O)CN(C1CCCCC1)S(C)(=O)=O [CBK266720] | 105
COc1cccc(NC(=O)CC(CN2CCN(CCC#N)CC2)C(=O)O)c1 (stereo not shown) [CBK286801] | 86.1
O=C(c1ccco1)N1CCN(CC(=O)N2c3ccccc3OCC2c2ccccc2)CC1 (stereo not shown) [CBK239722] | 89.9
COc1cc(NC(=O)NCc2cncn2CC(C)C)c2ncccc2c1 [CBK307182] | 52.1
O=C(c1cccnc1)C1CCN(C(=O)C2CCCC2)CC1 [CBK283508] | 96.2
O=C1NCC2(CCN(C(=O)c3cccs3)CC2)Oc2ccccc21 [CBK282917] | 100
COc1nc2ccccc2nc1CCC(=O)O [CBK269356] | 89.1
CCCCc1cc(C[C@@H]2C[C@H](NC(=O)N3CCOCC3)C2(C)C)no1 [CBK289257] | 87.9
COCCCn1c(=O)[nH]c2ncc(-c3ccco3)nc21 [CBK064449] | 99.2
O=C(O)CSc1nc2ccc([N+](=O)[O-])cc2s1 [CBK262232] | 88.4
Cc1[nH]c(=O)[nH]c1C(=O)CCCCC(=O)O [CBK263197] | 94
COCC1CCN(c2c(F)cc(C#N)cc2F)CC1 [CBK306244] | 104
Cc1noc(C)c1S(=O)(=O)Nc1cccc(C(=O)O)c1 [CBK038902] | 102
Cc1nc2sc(C(=O)OCc3cc(=O)oc4cc5c(cc34)CCC5)c(C)c2c(=O)[nH]1 [CBK297528] | 114
Cc1cc(O)c(-c2n[nH]c3c2C(c2ccccc2F)N(Cc2cccnc2)C3=O)cc1C (stereo not shown) [CBK268831] | 89.8
CN(C)S(=O)(=O)N1CCN(c2ccnc3cc(Cl)ccc23)CC1 [CBK269785] | 99.2

Structure (SMILES) | viability at 28.5 h, 10 µM [%]
CCN(CC)C(=O)c1ccccc1NS(=O)(=O)c1ccc(C)cc1 [CBK045416] | 88.7
Cc1ccccc1CN1CCC(O)(c2cccnc2F)CC1 [CBK284376] | 96
O=C(Nc1ccc2[nH]ccc2c1)N1CCc2ccccc2C1 [CBK155289] | 84.5
O=C(Nc1nc2ccc(Br)cc2s1)C1CC1 [CBK026046] | 108
CC(C)N1CCc2c(sc3nc(SCc4ccc(Cl)cc4)n(Cc4ccccc4)c(=O)c23)C1 [CBK263745] | 84.4
CCN(CC)CC(=O)Nc1c2c(nc3ccccc13)N(C)CC2 [CBK023917C] | 110
CN1CCC(N2CCN(C(=O)c3ccc4c(c3)no[n+]4[O-])CC2)CC1 [CBK149095] | 92.6
Cc1ccc2c(c1)CCN(S(C)(=O)=O)C21CCN(CCCOc2ccccc2)CC1 [CBK081066] | 96.8
CCOC(=O)CC(=O)COc1noc2nc(C)cc(C)c12 [CBK269595] | 98.2
Cc1onc(-c2ccccc2)c1C(=O)NCCCn1ccnc1 [CBK262870] | 96.2
Cc1nn(C)c(Cl)c1S(=O)(=O)Nc1cc(N2CCN(C(=O)OC(C)(C)C)CC2)c2occc2c1 [CBK067787] | 95.8
Cc1c(OCc2ccccc2)ccc2c1OC1(CCN(C(=O)c3ccccn3)CC1)CC2=O [CBK156441] | 106
CCCn1c(SC(C)C(=O)c2cc(C)n(-c3ccc(Cl)cc3)c2C)n[nH]c1=O (stereo not shown) [CBK295595] | 86.2
O=C(Nc1cccc(Cl)c1)c1cccc(NC(=O)c2ccccc2C(=O)O)c1 [CBK287122] | 81.8
c1ccc(N2CCN(c3cncc(-c4cccs4)n3)CC2)nc1 [CBK065502] | 102
CCOc1ccccc1NC(=O)c1cc(CC(C)C)oc1C [CBK057904] | 101
Nc1ncnc2[nH]c(SCc3nc4ccccc4n3Cc3ccccc3)nc12 [CBK264148] | 103
N#C/C(=C\c1ccc(OCC(=O)O)cc1)C(N)=S [CBK268917] | 102
COC(=O)CCc1ccc(S(=O)(=O)N2CCN(Cc3ccc(O)c(F)c3)CC2)cc1 [CBK062813] | 88.9
CC(C)(C)c1ccc(OCC(O)Cn2c(CO)nc3ccccc32)cc1 (stereo not shown) [CBK293973] | 81.7
CCN(CC)CCN(Cc1ccc2c(c1)OCO2)C(=O)Nc1cccc(NC(C)=O)c1 [CBK159042] | 108
CCC(=O)N1CCc2cc(C(O)CN3CCCCC3)ccc21 (stereo not shown) [CBK283111] | 98.3

Structure (SMILES) | viability at 28.5 h, 10 µM [%]
NCCCNC(=O)c1cc2ccccc2[nH]1 [CBK267639] | 88.4
CC(C)OC(=O)Cn1c(C2CCCNC2)cc2cccnc21 (stereo not shown) [CBK285058] | 100
COc1cc(C(C)c2cc3c(cc2OCC(=O)O)OCO3)cc(OC)c1OC (stereo not shown) [CBK200109] | 90.5
CCCC/C=C/c1cnc(N)c(-c2cccc(N)c2)n1 [CBK063954] | 102
O=C(CC(NC1CCCC1)C(=O)O)Nc1cccc(Cl)c1 (stereo not shown) [CBK266831] | 105
CN(C)CCNc1cc(-c2ccncc2)nc2ccccc12 [CBK066898B] | 90.4
C[C@@H](c1ccccc1)n1c(=O)[nH]c2ncc(-c3cccc4cccnc34)nc21 [CBK064199] | 92
CCN(CC)CCn1c(OC)cc(=O)[nH]c1=O [CBK264411] | 97.5
O=C(NCCc1c[nH]cn1)NC12CC3CC(CC(C3)C1)C2 [CBK269880] | 86.2
Nc1nc(CN2C(=O)c3ccccc3C2=O)n[nH]1 [CBK266655] | 105
CCN(C(=O)Cn1cccc(OC)c1=O)C1CCOC(C)(C)C1 (stereo not shown) [CBK306879] | 86.5
CS(=O)(=O)c1cccc(-c2nnc(NC(=O)c3ccccc3)o2)c1 [CBK287726] | 82.4
COc1cc(C)c(S(=O)(=O)Nc2ccc(CC(=O)O)cc2)cc1C [CBK299782] | 101
Cc1ccc(-c2cnc3ccccc3n2)cc1NC(=O)c1ccccc1S(=O)(=O)c1ccc([N+](=O)[O-])cc1 [CBK267690] | 110
Cc1cc(C(F)F)n2nc(C(=O)Nc3ccc(S(=O)(=O)NC45CC6CC(CC(C6)C4)C5)cc3)nc2n1 [CBK266251] | 96.2
O=C(CSCCO)Nc1ccc(N2CCOCC2)cc1 [CBK269616] | 89.7
Fc1ccccc1/C=N/Nc1nccnc1Cl [CBK261711] | 87.8
Cn1c(=O)c2c(nc(Oc3ccccc3Cl)n2Cc2cccc(C(F)(F)F)c2)n(C)c1=O [CBK265940] | 89.7
N#C/C(=C\c1cn(-c2ccccc2)nc1-c1cccc(S(=O)(=O)N2CCOCC2)c1)c1nc2ccccc2c(=O)[nH]1 [CBK266357] | 98.1
COC(=O)C(C)CSc1ccc(C(C)(C)C)cc1 (stereo not shown) [CBK010499] | 107
O=C(Cc1ccccc1F)N1CCC(n2cnc3cccnc32)CC1 [CBK283635] | 87.7

same assay, conditions: human, hela cells, % viability, bulk resorufin, single well

Structure (SMILES) | viability at 28.5 h, 10 µM [%]
Cc1ccc(N2C(=O)NC(=O)/C(=C\c3ccc(OCC(=O)O)c(Br)c3)C2=O)cc1C [CBK263899] | 84
